The results in this text go back to US9695330B2, “Liquid composition, pigment dispersion liquid, and aqueous ink composition for ink jet recording” (Seiko Epson Corporation, priority 2015, dated 2017).

Each structure is given as a SMILES string.

A short description of the first series: Distribution coefficient of water-octanol (logP), OECD Test Guideline 107. Format: physicochemical.
Details: not given
Usually logP stands for a log measure of how a compound divides between an organic and an aqueous phase. In turn, `CCCCC(CC)COCC(O)CO` (stereo not shown) [3-(2-ethylhexyloxy)-1,2-propanediol] returned a logP of 2.53.

For `CCCC(=O)OCC(O)CO` (stereo not shown) [butyric acid 2,3-dihydroxypropyl], the “logP (distribution coefficient of water-octanol)” value is -0.21.

As to `CCCCCC(=O)OCC(O)CO` (stereo not shown) [hexanoic acid 2,3-dihydroxypropyl], the “logP (distribution coefficient of water-octanol)” value was 0.85.

In the case of `C=C(C)C(=O)OCC(O)CO` (stereo not shown) [methacrylic acid 2,3-dihydroxypropyl], the “logP (distribution coefficient of water-octanol)” value is reported as −0.12.

For `CCC(=O)OCC(O)CO` (stereo not shown) [propionic acid 2,3-dihydroxypropyl], the “logP (distribution coefficient of water-octanol)” value is −0.75.

The same series, now with this note: octanol/water.
In turn, `C#CCOCC(O)CO` (stereo not shown) [3-(2-propynyloxy)-1,2-propanediol] gave a logP of 0.75.

The molecule `C=CCOCC(O)CO` (stereo not shown) [3-allyloxy-1,2-propanediol] gave a logP of -0.46.

Molecule `CCCCOCC(O)CO` (stereo not shown) [3-butoxy-1,2-propanediol] registered a logP of 0.59.

`OCC(O)COC1CCCCC1` (stereo not shown) [3-cyclohexyloxy-1,2-propanediol]: the lipophilicity (logP) came to 1.

On to `CCOCC(O)CO` (stereo not shown) [3-ethoxy-1,2-propanediol], for which the logP was -0.43.

`CCCCCCOCC(O)CO` (stereo not shown) [3-hexyloxy-1,2-propanediol] showed a logP of 0.36.

`CC(C)CCOCC(O)CO` (stereo not shown) [3-isopentyloxy-1,2-propanediol] yielded a logP of 0.94.

As for `CC1CCC(C(C)C)C(OCC(O)CO)C1` (stereo not shown) [3-menthyloxy-1,2-propanediol], the logP was 2.6.

In turn, `COCC(O)CO` (stereo not shown) [3-methoxy-1,2-propanediol] gave a logP of -0.62.

Turning to `CCCCCOCC(O)CO` (stereo not shown) [3-pentyloxy-1,2-propanediol], the logP was 0.9.

As for `CC(=O)OCC(COC(C)=O)OC(C)=O` [glycerol triacetate], the logP was -0.24.
